Assay results as given in patent publication US6130220A, “Sulfamide-metalloprotease inhibitors” (Syntex (USA) Inc., priority 1999, dated 2000).
Like-named read-outs stand apart in the source and are kept apart here.

Tests used:
Collagenase-I = molecular target: T1, Collagenase-I (Homo sapiens, UniProt P03956); experiment: MMP enzymatic assay, hydrolysis of MCA-Pro-Leu-Gly-Leu-DPA-Ala-Arg-NH2, Collagenase-I; type: biochemical
T1 construct: the collagenase-1 catalytic domain was released by treatment with 1 mM of aninophenylmercuric acetate; ubiquitin (cleaved yes); made in house; host or cells: E. coli
T1 sequence (P03956 100-269 limits assumed): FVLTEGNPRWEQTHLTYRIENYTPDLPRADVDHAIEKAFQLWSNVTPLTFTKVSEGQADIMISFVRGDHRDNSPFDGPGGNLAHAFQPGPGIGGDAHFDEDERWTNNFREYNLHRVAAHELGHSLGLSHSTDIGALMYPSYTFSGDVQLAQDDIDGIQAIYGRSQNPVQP

[1] = tested on: TNF-α release from Human Monomac 6 cells; experiment: Inhibition of TNF release in vitro, Monomac 6 cells, LPS/PMA; type: cell-based; conditions: 2 h
Protocol: The activity of compounds of this invention in inhibiting the TNF release was determined, using the a minor modification of the method described in Pradines-Figueres, A. and Raetz, C. R. H., J. Biol. Chem., 267 (32), 23261, (1992).
Human Monomac 6 cells (Ziegler-Heitbrock, H. W. L., et al., Int. J. Cancer, 41, 456, (1988)) were cultured at 37° C. in RPMI 1640 medium containing 10% fetal calf serum to a density of 1×10^5 cells/ml. 0.23 ml of these cells were placed in each well of a tissue culture plate and the cells were incubated for 15 min. The test compounds were dissolved in above mentioned medium and added and the incubation was continued for an additional 15 min. 10 μl of an lipopolysaccharide/phorbol-12-myristate-13-acetate (LPS/PMA) mixture was added such that the final concentration of lipopolysaccharide was 10 ng/ml and the final concentration of phorbol-12-myristate-13-acetate was 30 ng/ml. The cells were incubated for 2 h after which the plate was centrifuged and the medium was removed and analyzed for TNF content. The analysis was performed using a TNF Quantikine® Inmunoassay (R & D Systems, Minneapolis, Minn. 55413) by following the manufacturer's protocol.
The TNF-α inhibitory activity of test materials, i.e., the measure of the TNF-α content in the test group relative to the vehicle treated group (control group) was: […]

Collagenase-III = experiment: MMP enzymatic assay, hydrolysis of MCA-Pro-Leu-Gly-Leu-DPA-Ala-Arg-NH2, Collagenase-III; type: biochemical; conditions: 37° C., pH 7.5, 2.5% DMSO
Protocol: The propeptide and catalytic domain portion of human collagenase-3 was expressed in E. Coli as an N-terminal fusion protein with ubiquitin. After purification, the catalytic domain was released by treatment with 1 mM APMA for 1 hour at 37° C., and then purified by zinc chelate chromatography.
Rat collagenase-3 was purified in active form from the culture media of uterine smooth muscle cells as described in Roswit, W. T. et al., Arch. Biochem. Biophys., 225, 285-295 (1983).
The matrix metalloprotease inhibitory activity of compounds of this invention in vitro was determined based on the hydrolysis of MCA-Pro-Leu-Gly-Leu-DPA-Ala-Arg-NH2 (Bachem, Inc.) at 37° C. as described in Knight, C. G., et al., FEBS Lett., 296, 263-266 (1992).
The matrix metalloprotease enzyme was diluted with assay buffer (50 mM Tricine pH 7.5, 200 mM NaCl, 10 mM CaCl2, and 0.005% Brij-35) containing 10 μmole of above substrate dissolved in DMSO. Compounds of the invention dissolved in DMSO or only DMSO (control samples) were added such that the final DMSO concentration in all assays was 2.5%. The fluorescence changes were monitored with a Perkin-Elmer LS-50B flourimeter using an excitation wavelength of 328 nm and an emission wavelength of 393 nm.

TNF-α = experiment: Inhibition of LPS induced TNF-α production in mice in vivo; conditions: s.c. compound, LPS 50 μg/mouse i.p. 1 h later, blood after 1.5 h
Protocol: The activity of compounds of this invention in inhibiting the TNF-α release was determined, using a minor modification of the methods described in Zanetti, G.; Heumann, D., et. al., "Cytokine production after intravenous or peritoneal Gram-negative bacterial challenge in mice" J. Immunol., 148, 1890, (1992) and Sekut, L., Menius, J. A., et. al., "Evaluation if the significance of elevated levels of systemic and localized tumor necrosis factor in different animal models of inflammation" J. Lab. Clin. Med., 124, 813, (1994).
Female Balbic mice were anesthetized and injected subcutaneously with the test compounds dissolved in CMC vehicle or hydroxypropylmethyl cellulose based vehicle. Control animals received only the vehicle. After 1 h, LPS (50 μg/mouse, Sigma #13129, Sigma Chemical Co., St. Louis, Mo.) was injected intraperitoneally. After 1.5 h, blood was collected from the retro-rbital plexus region of the animals in a miicrotainer serum separator tube (Becton Dickinson, Cat. No. #5960, Becton Dickinson & Co., Franklin Lakes, N.J.). The sera was separated and the amount of TNF-α was determined using the EM-TNFA® kit (Endogen, Woburn, Mass.) by following the manufacturer's protocol.

[2] = 37° C., pH 7.5, 2.5% DMSO; read-out: Collagenase-I IC50

Row | Structure (SMILES) | IC50 (Collagenase-I; read-out: Collagenase-I IC50; 37° C., pH 7.5, 2.5% DMSO) | IC50 (Collagenase-I; [2]) | inhibition at 10 µM ([1]; MONO-MAC-6, 10 μM, read-out: TNF-α % inhibition, Conc. 10 μM) | inhibition at 2 µM ([1]; MONO-MAC-6, 2 μM, read-out: TNF-α % inhibition, Conc. 2 μM) | IC50 (Collagenase-III) | TNF-α % inhibition (TNF-α)
1 | CC(C)[C@@H](NS(=O)(=O)N1CCN(c2ccc(OCc3ccncc3)cc2)CC1)C(=O)O [compound 413, 2-(R)-{[4-(pyridin-4-ylmethyloxyphenyl)piperazine-1-sulfonyl]amino}-3-methylbutyric acid] | 9300 nM | – | – | – | – | –
2 | O=C(NO)[C@H](CSc1ccccc1)NS(=O)(=O)N1CCN(c2ccc(Cl)cn2)CC1 [compound 106, N-hydroxy-2-(R)-{[4-(5-chloropyridin-2-yl)piperazine-1-sulfonyl]amino}-3-(phenylthio)propionamide] | – | 223 nM | 41% | – | – | –
3 | O=C(NO)[C@H]1CCCCN1S(=O)(=O)N1CCC(c2c[nH]c3c(F)c(F)c(F)c(F)c23)CC1 [compound 299, N-hydroxy-1-[4-(4,5,6,7-tetrafluoroindol-3-yl)piperdine-1-sulfonyl]piperidine-2-(R)-carboxamide] | – | > 50000 nM | – | 90% | 410 nM | 52%
